Data published in patent US5670138A, “Mouth-care products” (Sara Lee/DE N.V., priority 1994, dated 1997).

How the values were obtained:
[1] = test system: acid phosphatase and pyrophosphatase; experiment: Inhibition of the enzymatic hydrolysis of pyrophosphate; assay type: biochemical; conditions: 480 ppm pyrophosphate, tris buffer pH=7
Protocol: To a solution, 3 ml, containing 480 ppm of pyrophosphate, various polymers, as defined in the table, optionally in combination with fluoride, and tris buffer (pH=7), 6*10^-2 U acid phosphatase and 4*10^-2 U pyrophosphatase ware added. The enzymatic hydrolysis of pyrophosphatase was determined by the withdrawal of 0.5 ml samples and measuring the orthophosphate concentration (V/MO complex).

[2] = Triclosan concentration in supernatant with polymer; conditions: 3000 ppm triclosan, no polymer
Protocol: Polymer and 3000 ppm bactericide (Bromochlorophene (BCP) or triclosan) were solved in distilled water at pH=12.5 (NaOH). […] The bactericide concentration was determined at pH 8, 7 or 6 in the supernatant solution by UV/VIS at pH=12.5 and 37° C.

ppm triclosan in supernatant at pH 6 [2] [ppm] | ppm triclosan in supernatant at pH 7 [2] [ppm] | ppm triclosan in supernatant at pH 8 [2] [ppm] | SMILES | ppm orthophosphate after 60 min [1] [ppm] | ppm orthophosphate after 120 min [1] [ppm] | ppm orthophosphate after 240 min [1] [ppm]
 |  |  | [F-].[Na+] [NaF, sodium fluoride] | 1.8 | 3.9 | 9.6
7 ± 3 | 15 ± 1 | 30 ± 2 | Oc1cc(Cl)ccc1Oc1ccc(Cl)cc1Cl [triclosan, 5-chloro-2-(2,4-dichlorophenoxy)phenol] |  |  | 
